Test results taken from PubChem BioAssay (NCI).
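Exposure lasted 48 hours, with cells grown in 96-well plates and compounds tested at five concentrations. GI50 = concentration required for 50% inhibition of growth. TGI: total growth inhibition.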

Key:
Assay in all cases: NCI-60 cell line screen, 48 h
[1] = test system: U251 CNS
[2] = test system: M19-MEL melanoma
[3] = test system: KM12 colon
[4] = test system: K-562 leukemia
[5] = test system: SK-OV-3 ovarian
[6] = test system: SF-295 CNS
[7] = test system: UACC-62 melanoma
[8] = test system: HL-60(TB) leukemia
[9] = test system: T-47D breast
[10] = test system: BT-549 breast

Structure (SMILES)	TGI [1]	TGI [2]	TGI [3]	TGI [4]	TGI [5]	TGI [6]	TGI [7]	TGI [8]	TGI [9]	TGI [10]	GI50 [2]	GI50 [3]	GI50 [4]	GI50 [5]	GI50 [6]	GI50 [7]
O=C(Cl)c1cc([N+](=O)[O-])cc([N+](=O)[O-])c1	> 100 µM	> 100 µM	> 100 µM	> 100 µM	> 100 µM	> 100 µM	> 100 µM	> 100 µM	–	–	–	–	–	–	–	–
CN(C)CCCNc1ccc2nnn3c4ccc([N+](=O)[O-])cc4c(=O)c1c23	5.16 µM	16.2 µM	4.53 µM	21.9 µM	16 µM	7.44 µM	14.4 µM	11.3 µM	27.9 µM	19.2 µM	–	–	–	–	–	–
CC(C)CCC[C@@H](C)[C@H]1CC[C@H]2[C@@H]3CC=C4CC(OCCCCN(O)CCCSC5OC(CO)C(O)C(O)C5O)CC[C@]4(C)[C@H]3CC[C@]12C (some centres undefined)	75.1 µM	> 100 µM	> 100 µM	> 100 µM	> 100 µM	> 100 µM	> 100 µM	> 100 µM	–	–	–	–	–	–	–	–
CCC1OC(=O)C(C)C(OC2CC(C)(O)C(O)C(C)O2)C(C)C(O)C(C)(O)CC(C)C(=O)C(C)C(O)C1C (centres undefined)	> 300 µM	> 300 µM	> 300 µM	> 300 µM	> 300 µM	> 300 µM	> 300 µM	> 300 µM	–	–	–	–	–	–	–	–
CC(C)(C)C(=O)Cc1cc2c(cc1C(=O)O)S(=O)(=O)NC(C(C)(C)C)=C2	> 100 µM	> 100 µM	> 100 µM	> 100 µM	> 100 µM	> 100 µM	> 100 µM	> 100 µM	–	–	–	–	–	–	–	–
Nc1nc(NC(=O)C2=NS(=O)(=O)c3cc(S(N)(=O)=O)c(Cl)cc3N2)n[nH]1	> 100 µM	> 100 µM	> 100 µM	> 100 µM	> 100 µM	> 100 µM	> 100 µM	–	–	–	–	–	–	–	–	–
O=c1n(CCO)nc2n1CCCN2	> 100 µM	–	> 100 µM	> 100 µM	> 100 µM	> 100 µM	> 100 µM	> 100 µM	> 100 µM	> 100 µM	–	–	–	–	–	–
O=C(C(=O)n1ccc2ccccc21)c1c[nH]c2ccccc12	> 10 µM	–	> 10 µM	> 10 µM	> 10 µM	> 10 µM	> 10 µM	> 10 µM	> 10 µM	> 10 µM	–	–	–	–	–	–
CC(C)(C)OC(=O)N(CCCN)CCCCN(CCCN)C(=O)OC(C)(C)C	> 100 µM	–	> 100 µM	> 100 µM	> 100 µM	> 100 µM	> 100 µM	> 100 µM	> 100 µM	> 100 µM	–	–	–	–	–	–
CN1CCN(c2nc3c(c(=O)n(C)c(=O)n3C)n2C)CC1	> 100 µM	–	> 100 µM	> 100 µM	> 100 µM	> 100 µM	> 100 µM	> 100 µM	> 100 µM	> 100 µM	–	–	–	–	–	–
CCOC(=O)C1C(=O)C=C(c2cc(C)ccc2O)CC1c1cccc(Br)c1 (centres undefined)	32 µM	–	47.4 µM	46.8 µM	43.1 µM	35.5 µM	28 µM	44.2 µM	72 µM	72.7 µM	–	–	–	–	–	–
O=C(O)CCCCCNC(=O)CCC(CN(CC(=O)OCc1ccccc1)CC(=O)OCc1ccccc1)N(CC(=O)OCc1ccccc1)CC(=O)OCc1ccccc1 (centres undefined)	46.6 µM	–	36.9 µM	30.6 µM	26.1 µM	32.2 µM	30.4 µM	32.8 µM	36.9 µM	33.1 µM	–	–	–	–	–	–
COc1cc(C2c3cc4c(c(O)c3C(=O)C3CCC(=O)N32)OCO4)cc(OC)c1OC (centres undefined)	> 100 µM	–	> 100 µM	> 100 µM	> 100 µM	> 100 µM	> 100 µM	> 100 µM	> 100 µM	92.5 µM	–	–	–	–	–	–
COc1cc(/C=C/C(=O)C(C)(C)C)cc(OC)c1OC	> 100 µM	> 100 µM	52.7 µM	> 100 µM	> 100 µM	> 100 µM	> 100 µM	53 µM	–	–	–	–	–	–	–	–
COc1cc2c(oc(=O)c3c4oc([Si](C)(C)C)cc4cc(OC)c23)c2cccc(O)c12	> 100 µM	> 100 µM	> 100 µM	> 100 µM	> 100 µM	> 100 µM	> 100 µM	> 100 µM	–	–	–	–	–	–	–	–
COc1cc2c(cc1C)NC(=O)/C2=C/c1c(Cl)n(C)c2ccccc12	28 µM	–	16.6 µM	> 100 µM	39.8 µM	29.4 µM	26.8 µM	8.94 µM	19.3 µM	24.4 µM	–	–	–	–	–	–

Structure (SMILES)	TGI [1]	TGI [2]	TGI [3]	TGI [4]	TGI [5]	TGI [6]	TGI [7]	TGI [8]	TGI [9]	TGI [10]	GI50 [2]	GI50 [3]	GI50 [4]	GI50 [5]	GI50 [6]	GI50 [7]
CCN1CCc2sc3[nH]c(=S)n(C)c(=O)c3c2C1	> 100 µM	–	> 100 µM	> 100 µM	> 100 µM	> 100 µM	> 100 µM	1.83 µM	> 100 µM	> 100 µM	–	–	–	–	–	–
COC(=O)C(I(OS(=O)(=O)c1ccc(C)cc1)c1ccccc1)=P(c1ccccc1)(c1ccccc1)c1ccccc1	40.7 µM	–	34.2 µM	> 100 µM	52.4 µM	87 µM	35.1 µM	45.5 µM	48.2 µM	45.5 µM	–	–	–	–	–	–
CC(=O)NC(Cc1ccccc1)C(=S)N1CCCC1 (centres undefined)	> 100 µM	> 100 µM	> 100 µM	> 100 µM	> 100 µM	> 100 µM	> 100 µM	> 100 µM	–	–	–	–	–	–	–	–
O=C(CCc1nnc2s/c(=C\c3ccc(Cl)cc3Cl)c(=O)n12)Nc1cc(Cl)c(Cl)cc1Cl	> 100 µM	> 100 µM	> 100 µM	> 100 µM	> 100 µM	> 100 µM	> 100 µM	> 100 µM	–	–	> 100 µM	> 100 µM	> 100 µM	> 100 µM	> 100 µM	> 100 µM
COc1cccc2c(NNc3ccc(Cl)cc3)c3ccc([N+](=O)[O-])cc3nc12	31.2 µM	–	> 100 µM	97.2 µM	32.5 µM	36.1 µM	26.3 µM	28.8 µM	61.8 µM	29.8 µM	–	–	–	–	–	–
Cc1ccc(CCNC(=S)SCC(NC(=O)CCC(N)C(=O)O)C(=O)NCC(=O)O)cc1 (centres undefined)	4.06 µM	4.07 µM	2.68 µM	2.5 µM	19.2 µM	8.69 µM	3.08 µM	2.6 µM	–	–	–	–	–	–	–	–
CCC1(CC)C(=O)N(C(=O)c2ccc(Cl)cc2)N(C(=O)c2ccccc2Cl)C1=O	> 100 µM	–	> 100 µM	> 100 µM	> 100 µM	> 100 µM	> 100 µM	> 100 µM	> 100 µM	> 100 µM	–	–	–	–	–	–
O=C(N/N=C/c1cc(-c2ccccc2Cl)c(-c2ccccc2Cl)o1)c1ccncc1	–	> 100 µM	–	–	> 100 µM	> 100 µM	> 100 µM	> 100 µM	–	–	–	–	–	–	–	–
COC(=O)c1cc(CNCCc2c[nH]c3ccccc23)on1	> 100 µM	> 100 µM	> 100 µM	> 100 µM	> 100 µM	> 100 µM	> 100 µM	> 100 µM	> 100 µM	–	–	–	–	–	–	–
O=c1[nH]c2cccccc-2c1-c1nc2ccccc2[nH]1	68 µM	> 100 µM	> 100 µM	> 100 µM	51.2 µM	> 100 µM	44.9 µM	> 100 µM	–	–	–	–	–	–	–	–
Cc1ccc(-c2cn3c(nc4ccccc43)c(C)n2)cc1	> 87.7 µM	–	> 100 µM	> 100 µM	41.5 µM	> 100 µM	> 81.3 µM	> 100 µM	> 30.1 µM	> 89.4 µM	–	–	–	–	–	–
O=C1NC(N2CCCC(CO)C2)=N/C1=C\c1ccc(O)cc1 (centres undefined)	> 100 µM	–	> 100 µM	> 100 µM	> 100 µM	> 100 µM	> 100 µM	> 100 µM	> 100 µM	> 100 µM	–	–	–	–	–	–
COc1ccccc1C1C(Cl)C(=O)N1NC(=O)Cc1ccccc1 (centres undefined)	> 100 µM	> 100 µM	> 100 µM	> 100 µM	> 100 µM	> 100 µM	> 100 µM	> 100 µM	–	–	–	–	–	–	–	–
COc1ccc(/C=N/NC(=O)c2ccccc2Nc2ccccc2C(=O)N/N=C/c2ccc(OC)c(OC)c2)cc1OC	> 100 µM	–	> 100 µM	> 100 µM	> 100 µM	> 100 µM	> 100 µM	> 100 µM	> 100 µM	> 100 µM	–	–	–	–	–	–
CC(C)NC(=O)OCc1c(COC(=O)NC(C)C)c(-c2ccc[n+](COC(=O)C3CCCCC3)c2)n2c1CCC2	> 100 µM	–	> 100 µM	> 100 µM	> 100 µM	> 100 µM	87.4 µM	> 100 µM	> 100 µM	> 100 µM	–	–	–	–	–	–
